Assay results published in patent publication US4393050A, “Analogs of extended N-terminal somatostatin” (The Salk Institute for Biological Studies, priority 1981, dated 1983).
Like-named read-outs stand apart in the source and are kept apart here. Residues, ends and D or L forms follow the SMILES beside them.

Legend:
[1] = test system: cells of rat pituitary glands; assay type: cell-based
Method: To determine the effectiveness of the peptides to inhibit the release of growth hormone, in vitro radioimmunoassays are carried out using the SS-28 analogs in side-by-side comparison with equimolar concentrations of somotostatin-14 having a known effectiveness to inhibit the release of growth hormone induced by the application of isobutyl methyl xanthine to pituitary cells. Cultures are used which include cells of rat pituitary glands removed some four to five days previously in a system that minimizes enzymatic degradation, generally following the procedure set forth in Vale et al., Methods in Enzymology, Hormones and Cyclic Nucleotides (1975) Vol. 37, p. 82. Both cultures of a defined standard medium and cultures which are considered optimal for the secretion of growth hormone, as a result of having additions of either 2% or 10% of serum from a foetal calf, are used for the comparative testing.

glucagon secretion = assay type: in vivo, rats
Method: (§1) In vivo experiments are carried out with the SS-28 analogs, using the procedure described in Brown et al., Metabolism (1976) Vol. 25, pp. 1501-1503, to determine the potency, relative to somatostatin-14 to inhibit the secretion of glucagon and insulin stimulated by the administration of arginine to groups of six rats.

insulin secretion = assay type: in vivo, rats
Method: as §1

[2] = juvenile-type diabetics, complete absence of circulating insulin; cited from earlier work
[3] = rats, arginine-stimulated secretion, SS-14 = 1

| SMILES | In Vitro Growth Hormone (potency to inhibit release, relative to SS-14) [1] | In Vivo Glugacon (potency to inhibit secretion, relative to SS-14) (glucagon secretion; rat, in vivo) | In Vivo Insulin (potency to inhibit secretion, relative to SS-14) (insulin secretion; rat, in vivo) | In Vivo Glugacon (potency to inhibit secretion, relative to SS-14) (glucagon secretion; [3]) | In Vivo Insulin (potency to inhibit secretion, relative to SS-14) (insulin secretion; [3]) | diminution of fasting hyperglycemia [2] [%] | In Vitro Growth Hormone (potency to inhibit release, relative to SS-14) ([1]; rat pituitary cell cultures, isobutyl methyl xanthine-induced GH release, SS-14 = 1) |
| --- | --- | --- | --- | --- | --- | --- | --- |
| CC(C)C[C@H](NC(=O)[C@H](C)NC(=O)[C@@H]1CCCN1C(=O)[C@H](CC(N)=O)NC(=O)[C@H](CO)NC(=O)[C@H](CC(N)=O)NC(=O)[C@H](C)NC(=O)[C@@H](N)CO)C(=O)N[C@@H](C)C(=O)N1CCC[C@H]1C(=O)N[C@@H](CCCNC(=N)N)C(=O)N[C@@H](CCC(=O)O)C(=O)N[C@@H](CCCNC(=N)N)C(=O)N[C@@H](CCCCN)C(=O)N[C@@H](C)C(=O)NCC(=O)N[C@H]1CSSC[C@@H](C(=O)O)NC(=O)[C@H](CO)NC(=O)[C@H]([C@@H](C)O)NC(=O)[C@H](Cc2ccc(O)cc2)NC(=O)[C@H]([C@@H](C)O)NC(=O)[C@H](CCCCN)NC(=O)[C@@H](Cc2c[nH]c3ccccc23)NC(=O)[C@H](Cc2ccccc2)NC(=O)[C@H](Cc2ccccc2)NC(=O)[C@H](CC(N)=O)NC(=O)[C@H](CCCCN)NC1=O [Peptide 1, [Leu^8, D-Trp^22, Tyr^25]--SS-28] (HELM PEPTIDE1{S.A.N.S.N.P.A.L.A.P.R.E.R.K.A.G.C.K.N.F.F.[dW].K.T.Y.T.S.C}$PEPTIDE1,PEPTIDE1,17:R3-28:R3$$$V2.0) | 4.84 |  |  |  |  |  |  |
| CSCC[C@H](NC(=O)[C@H](C)NC(=O)[C@@H]1CCCN1C(=O)[C@H](CC(N)=O)NC(=O)[C@H](CO)NC(=O)[C@H](CC(N)=O)NC(=O)[C@H](C)NC(=O)[C@@H](N)CO)C(=O)N[C@@H](C)C(=O)N1CCC[C@H]1C(=O)N[C@@H](CCCNC(=N)N)C(=O)N[C@@H](CCC(=O)O)C(=O)N[C@@H](CCCNC(=N)N)C(=O)N[C@@H](CCCCN)C(=O)N[C@@H](C)C(=O)NCC(=O)N[C@H]1CSSC[C@@H](C(=O)O)NC(=O)[C@@H](CO)NC(=O)[C@H]([C@@H](C)O)NC(=O)[C@H](Cc2ccccc2)NC(=O)[C@H]([C@@H](C)O)NC(=O)[C@H](CCCCN)NC(=O)[C@@H](Cc2c[nH]c3ccccc23)NC(=O)[C@H](Cc2ccccc2)NC(=O)[C@H](Cc2ccccc2)NC(=O)[C@H](CCCCN)NC1=O [Peptide 3, desAsn^19 [D-Trp^22, D-Ser^27]--SS-28] (HELM PEPTIDE1{S.A.N.S.N.P.A.M.A.P.R.E.R.K.A.G.C.K.F.F.[dW].K.T.F.T.[dS].C}$PEPTIDE1,PEPTIDE1,17:R3-27:R3$$$V2.0) | 0.1 | 1 | 145 |  |  |  |  |
| CSCC[C@H](NC(=O)[C@H](C)NC(=O)[C@@H]1CCCN1C(=O)[C@H](CC(N)=O)NC(=O)[C@H](CO)NC(=O)[C@H](CC(N)=O)NC(=O)[C@H](C)NC(=O)[C@@H](N)CO)C(=O)N[C@@H](C)C(=O)N1CCC[C@H]1C(=O)N[C@@H](CCCNC(=N)N)C(=O)N[C@@H](CCC(=O)O)C(=O)N[C@@H](CCCNC(=N)N)C(=O)N[C@@H](CCCCN)C(=O)N[C@@H](C)C(=O)NCC(=O)N[C@H]1CSSC[C@H](C(=O)O)NC(=O)[C@H](CO)NC(=O)[C@H](Cc2ccccc2)NC(=O)[C@H]([C@@H](C)O)NC(=O)[C@H](CCCCN)NC(=O)[C@@H](Cc2c[nH]c3ccccc23)NC(=O)[C@H](Cc2ccccc2)NC(=O)[C@H](Cc2ccccc2)NC1=O [Peptide 4, desAA^18,19,26 [D-Trp^22,D-Cys^28]--SS-28] (HELM PEPTIDE1{S.A.N.S.N.P.A.M.A.P.R.E.R.K.A.G.C.F.F.[dW].K.T.F.S.[dC]}$PEPTIDE1,PEPTIDE1,17:R3-25:R3$$$V2.0) | 1.51 | 14 | 18 |  |  |  |  |
| C[C@H](N)C(=O)NCC(=O)N[C@H]1CSSC[C@@H](C(=O)O)NC(=O)[C@H](CO)NC(=O)[C@H]([C@@H](C)O)NC(=O)[C@H](Cc2ccccc2)NC(=O)[C@H]([C@@H](C)O)NC(=O)[C@H](CCCCN)NC(=O)[C@H](Cc2c[nH]c3ccccc23)NC(=O)[C@H](Cc2ccccc2)NC(=O)[C@H](Cc2ccccc2)NC(=O)[C@H](CC(N)=O)NC(=O)[C@H](CCCCN)NC1=O [SS-14, somatostatin] |  |  |  | 1 | 1 | ≤ 50 | 1 |
